Assay results from patent US6825170B2, “6-O-acyl ketolide antibacterials” (Ortho-McNeil Pharmaceutical, Inc., priority 2001, dated 2004).
≈ marks a conversion by molar mass, not a printed value.

Experiments:
Test in all cases: MIC, microdilution broth method (NCCLS)
Format in all cases: cell-based
Details in all cases: 35° C., 16-20 hours
[1] = test system: E. coli OC2605
Summary of the method: (§1)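 Broth microdilution per NCCLS M7-A4 used two-fold compound dilutions in cation-adjusted Mueller-Hinton broth, inoculated at about 5×10^4 CFU/well. Trays were incubated at 35 °C for 16-20 h, and growth was compared with compound-free growth-control wells.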

[2] = test system: E. faecalis ATCC29212
Summary of the method: as §1

[3] = test system: H. influenzae ATCC49247
Summary of the method: as §1

[4] = test system: S. aureus ATCC29213
Summary of the method: as §1

[5] = test system: S. pneumoniae ATCC49619
Summary of the method: as §1

Structure (SMILES) | MIC (A: E. coli OC2605) [1] | MIC (C: E. faecalis ATCC29212) [2] | MIC (E: H. influenzae ATCC49247) [3] | MIC (B: S. aureus ATCC29213) [4] | MIC (D: S. pneumoniae ATCC49619) [5]
CC[C@H]1OC(=O)[C@H](C)C(=O)[C@H](C)[C@@H](O[C@@H]2O[C@H](C)C[C@H](N(C)C)[C@H]2O)[C@](C)(OC(=O)NN(C)C/C=C/c2ccc(-c3ncccn3)cc2)C[C@@H](C)C(=O)[C@H](C)[C@H]2NC(=O)O[C@@]21C [Compound 744] | >16 µg/mL | 0.25 µg/mL (≈ 0.289 µM) | 8 µg/mL (≈ 9.25 µM) | 0.25 µg/mL (≈ 0.289 µM) | 0.03 µg/mL (≈ 0.0347 µM)
CC[C@H]1OC(=O)[C@H](C)C(=O)[C@H](C)[C@@H](O[C@@H]2O[C@H](C)C[C@H](N(C)C)[C@H]2O)[C@](C)(OC(=O)NN(C)Cc2ccc(-c3ncccn3)cc2)C[C@@H](C)C(=O)[C@H](C)[C@H]2NC(=O)O[C@@]21C [Compound 774] | >16 µg/mL | 0.25 µg/mL (≈ 0.298 µM) | 4 µg/mL (≈ 4.77 µM) | 2 µg/mL (≈ 2.38 µM) | 0.06 µg/mL (≈ 0.0715 µM)
CCC1OC(=O)C(C)C(=O)C(C)C(OC2OC(C)CC(N(C)C)C2O)C(C)(OC(=O)NN)CC(C)C(=O)C(C)C2NC(=O)OC12C (stereo not shown) [Compound 5] | >16 µg/mL | 4 µg/mL (≈ 6.09 µM) | 8 µg/mL (≈ 12.2 µM) | 16 µg/mL (≈ 24.4 µM) | 0.5 µg/mL (≈ 0.761 µM)
CC[C@H]1OC(=O)[C@H](C)C(=O)[C@H](C)[C@@H](O[C@@H]2O[C@H](C)C[C@H](N(C)C)[C@H]2O)[C@](C)(OC(=O)NNCc2ccc(-c3ncccn3)cc2)C[C@@H](C)C(=O)[C@H](C)[C@H]2NC(=O)O[C@@]21C [Compound 676] | 8 µg/mL (≈ 9.7 µM) | 0.12 µg/mL (≈ 0.145 µM) | 4 µg/mL (≈ 4.85 µM) | 0.25 µg/mL (≈ 0.303 µM) | 0.03 µg/mL (≈ 0.0364 µM)
CCC1OC(=O)C(C)C(=O)C(C)C(OC2OC(C)CC(N(C)C)C2O)C(C)(OC(=O)n2ccc(C#N)c2)CC(C)C(=O)C(C)C2NC(=O)OC12C (stereo not shown) [Compound 4] | >16 µg/mL | 4 µg/mL (≈ 5.58 µM) | >16 µg/mL | >16 µg/mL | 1 µg/mL (≈ 1.4 µM)
CCC1OC(=O)C(C)C(=O)C(C)C(OC2OC(C)CC(N(C)C)C2O)C(C)(OC(=O)NOCC=Cc2ccc(-c3ncccn3)cc2)CC(C)C(=O)C(C)C2NC(=O)OC12C (stereo not shown) [Compound 605] | 16 µg/mL (≈ 18.8 µM) | 0.25 µg/mL (≈ 0.293 µM) | 4 µg/mL (≈ 4.69 µM) | 0.25 µg/mL (≈ 0.293 µM) | 0.06 µg/mL (≈ 0.0704 µM)
CCC1OC(=O)C(C)C(=O)C(C)C(OC2OC(C)CC(N(C)C)C2O)C(C)(OC(=O)OCC#Cc2ccc(-c3cccnn3)cc2)CC(C)C(=O)C(C)C2NC(=O)OC12C (stereo not shown) [Compound 87] | 8 µg/mL (≈ 9.58 µM) | 0.06 µg/mL (≈ 0.0719 µM) | 1 µg/mL (≈ 1.2 µM) | 0.12 µg/mL (≈ 0.144 µM) | 0.03 µg/mL (≈ 0.0359 µM)
CC[C@H]1OC(=O)[C@H](C)C(=O)[C@H](C)[C@@H](O[C@@H]2O[C@H](C)C[C@H](N(C)C)[C@H]2O)[C@](C)(OC(=O)NNCCc2ccc(-c3ncccn3)cc2)C[C@@H](C)C(=O)[C@H](C)[C@H]2NC(=O)O[C@@]21C [Compound 626] | >16 µg/mL | 0.12 µg/mL (≈ 0.143 µM) | 4 µg/mL (≈ 4.77 µM) | 0.25 µg/mL (≈ 0.298 µM) | 0.03 µg/mL (≈ 0.0358 µM)
CCC1OC(=O)C(C)C(=O)C(C)C(OC2OC(C)CC(N(C)C)C2O)C(C)(OC(=O)OCC#Cc2ccc(-c3cnccn3)cc2)CC(C)C(=O)C(C)C2NC(=O)OC12C (stereo not shown) [Compound 86] | 8 µg/mL (≈ 9.58 µM) | 0.06 µg/mL (≈ 0.0719 µM) | 2 µg/mL (≈ 2.4 µM) | 0.12 µg/mL (≈ 0.144 µM) | 0.03 µg/mL (≈ 0.0359 µM)
CC[C@H]1OC(=O)[C@H](C)C(=O)[C@H](C)[C@@H](O[C@@H]2O[C@H](C)C[C@H](N(C)C)[C@H]2O)[C@](C)(OC(=O)NN(CC)CCc2ccc(-c3ncccn3)cc2)C[C@@H](C)C(=O)[C@H](C)[C@H]2NC(=O)O[C@@]21C [Compound 804] | >16 µg/mL | 0.12 µg/mL (≈ 0.138 µM) | 8 µg/mL (≈ 9.23 µM) | 0.5 µg/mL (≈ 0.577 µM) | 0.03 µg/mL (≈ 0.0346 µM)
CCC1OC(=O)C(C)C(=O)C(C)C(OC2OC(C)CC(N(C)C)C2O)C(C)(OC(=O)OCc2ccc(-c3ncccn3)cc2)CC(C)C(=O)C(C)C2NC(=O)OC12C (stereo not shown) [Compound 77] | 8 µg/mL (≈ 9.87 µM) | 0.06 µg/mL (≈ 0.074 µM) | 2 µg/mL (≈ 2.47 µM) | 0.12 µg/mL (≈ 0.148 µM) | 0.03 µg/mL (≈ 0.037 µM)
CC[C@H]1OC(=O)[C@H](C)C(=O)[C@H](C)[C@@H](O[C@@H]2O[C@H](C)C[C@H](N(C)C)[C@H]2O)[C@](C)(OC(=O)NNCc2ccc(-c3cccnn3)cc2)C[C@@H](C)C(=O)[C@H](C)[C@H]2NC(=O)O[C@@]21C [Compound 675] | 16 µg/mL (≈ 19.4 µM) | 0.12 µg/mL (≈ 0.145 µM) | 2 µg/mL (≈ 2.42 µM) | 0.5 µg/mL (≈ 0.606 µM) | 0.06 µg/mL (≈ 0.0727 µM)
CCC1OC(=O)C(C)C(=O)C(C)C(OC2OC(C)CC(N(C)C)C2O)C(C)(OC(=O)n2ccc(C=O)c2)CC(C)C(=O)C(C)C2NC(=O)OC12C (stereo not shown) [Compound 3] | >16 µg/mL | 4 µg/mL (≈ 5.56 µM) | >16 µg/mL | >16 µg/mL | 1 µg/mL (≈ 1.39 µM)
CC[C@H]1OC(=O)[C@H](C)C(=O)[C@H](C)[C@@H](O[C@@H]2O[C@H](C)C[C@H](N(C)C)[C@H]2O)[C@](C)(OC(=O)NN(C/C=C/c2ccc(-c3ncccn3)cc2)C/C=C/c2ccc(-c3ncccn3)cc2)C[C@@H](C)C(=O)[C@H](C)[C@H]2NC(=O)O[C@@]21C [Compound 806] | >16 µg/mL | 1 µg/mL (≈ 0.957 µM) | 16 µg/mL (≈ 15.3 µM) | 2 µg/mL (≈ 1.91 µM) | 0.12 µg/mL (≈ 0.115 µM)
CC[C@H]1OC(=O)[C@H](C)C(=O)[C@H](C)[C@@H](O[C@@H]2O[C@H](C)C[C@H](N(C)C)[C@H]2O)[C@](C)(OC(=O)NOCCCc2ccccc2)C[C@@H](C)C(=O)[C@H](C)[C@H]2NC(=O)O[C@@]21C [Compound 612] | >16 µg/mL | 0.25 µg/mL (≈ 0.322 µM) | 4 µg/mL (≈ 5.16 µM) | 1 µg/mL (≈ 1.29 µM) | 0.06 µg/mL (≈ 0.0773 µM)
CCC1OC(=O)C(C)C(=O)C(C)C(OC2OC(C)CC(N(C)C)C2O)C(C)(OC(=O)NOCCCc2ccc(-c3ncccn3)cc2)CC(C)C(=O)C(C)C2NC(=O)OC12C (stereo not shown) [Compound 608] | >16 µg/mL | 0.5 µg/mL (≈ 0.585 µM) | 4 µg/mL (≈ 4.68 µM) | 0.5 µg/mL (≈ 0.585 µM) | 0.06 µg/mL (≈ 0.0703 µM)
CC[C@H]1OC(=O)[C@H](C)C(=O)[C@H](C)[C@@H](O[C@@H]2O[C@H](C)C[C@H](N(C)C)[C@H]2O)[C@](C)(OC(=O)NNCc2ccccc2)C[C@@H](C)C(=O)[C@H](C)[C@H]2NC(=O)O[C@@]21C [Compound 625] | >16 µg/mL | 0.25 µg/mL (≈ 0.335 µM) | 4 µg/mL (≈ 5.36 µM) | 2 µg/mL (≈ 2.68 µM) | 0.03 µg/mL (≈ 0.0402 µM)
